From the OligoGym collection
Several values for one entry are separate records, joined by “and”; a condition that tells them apart may be missing. Identical values can stand only once. HELM strings list units from the 5' end as sugar, base in round brackets, then linkage (d deoxyribose, r ribose, m 2'-O-methyl, p phosphodiester). Methylation of C is not given here. [moe] = 2'-O-(2-methoxyethyl) (MOE); [cEt] = constrained ethyl (cEt); [sp] = phosphorothioate linkage

Target: HBV
Details: ASO

| Substance | target mRNA inhibition (HepG2, 0.07 µM) | also measured |
| --- | --- | --- |
| RNA1{[moe](T)[sp].[cEt](C)[sp].[cEt](C)[sp].d(G)[sp].d(C)[sp].d(A)[sp].d(G)[sp].d(T)[sp].d(A)[sp].d(T)[sp].d(G)[sp].d(G)[sp].d(A)[sp].[cEt](T)[sp].[cEt](C)[sp].[moe](G)}$$$$V2.0 | 79% and 76% | – |
| RNA1{[moe](T)[sp].[moe](T)[sp].[moe](T)[sp].[moe](A)[sp].d(T)[sp].d(G)[sp].d(C)[sp].d(C)[sp].d(T)[sp].d(A)[sp].d(C)[sp].d(A)[sp].d(G)[sp].[moe](C)[sp].[moe](C)[sp].[moe](T)}$$$$V2.0 | 51% and 38% | – |
| RNA1{[moe](G)[sp].[moe](C)[sp].[moe](A)[sp].d(T)[sp].d(A)[sp].d(G)[sp].d(C)[sp].d(A)[sp].d(G)[sp].d(C)[sp].d(A)[sp].d(G)[sp].[moe](G)[sp].[moe](A)[sp].[moe](T)[sp].[moe](G)}$$$$V2.0 | 60% and 53% | – |
| RNA1{[moe](G)[sp].[moe](T)[sp].[moe](G)[sp].d(A)[sp].d(A)[sp].d(G)[sp].d(C)[sp].d(G)[sp].d(A)[sp].d(A)[sp].d(G)[sp].d(T)[sp].[moe](G)[sp].[moe](C)[sp].[moe](A)[sp].[moe](C)[sp].[moe](A)}$$$$V2.0 | 71% and 63% | – |
| RNA1{[moe](C)[sp].[moe](A)[sp].[moe](A)[sp].[moe](T)[sp].[moe](T)[sp].[moe](T)[sp].d(A)[sp].d(T)[sp].d(G)[sp].d(C)[sp].d(C)[sp].d(T)[sp].d(A)[sp].d(C)[sp].d(A)[sp].[moe](G)[sp].[moe](C)}$$$$V2.0 | 26% and 22% | – |
| RNA1{[moe](C)[sp].[moe](A)[sp].d(G)[sp].d(A)[sp].d(G)[sp].d(G)[sp].d(T)[sp].d(G)[sp].d(A)[sp].d(A)[sp].d(G)[sp].[moe](C)[sp].[moe](G)[sp].[moe](A)[sp].[moe](A)[sp].[moe](G)[sp].[moe](T)}$$$$V2.0 | 61% | – |
| RNA1{[moe](C)[sp].[moe](A)[sp].[moe](A)[sp].[moe](T)[sp].d(T)[sp].d(T)[sp].d(A)[sp].d(T)[sp].d(G)[sp].d(C)[sp].d(C)[sp].d(T)[sp].d(A)[sp].[moe](C)[sp].[moe](A)[sp].[moe](G)}$$$$V2.0 | 19% and 13% | – |
| RNA1{[moe](G)[sp].[moe](G)[sp].[moe](A)[sp].d(G)[sp].d(T)[sp].d(T)[sp].d(C)[sp].d(C)[sp].d(G)[sp].d(C)[sp].d(A)[sp].d(G)[sp].d(T)[sp].[cEt](A)[sp].[cEt](T)[sp].[cEt](G)}$$$$V2.0 | 74% and 82% | target mRNA inhibition (HepG2, 0.0092593 µM): 0%; target mRNA inhibition (HepG2, 0.0277778 µM): 25%; target mRNA inhibition (HepG2, 0.0833333 µM): 53%; target mRNA inhibition (HepG2, 0.25 µM): 72% |
| RNA1{[moe](G)[sp].[cEt](A)[sp].[cEt](A)[sp].d(G)[sp].d(T)[sp].d(C)[sp].d(C)[sp].d(A)[sp].d(C)[sp].d(C)[sp].d(A)[sp].d(C)[sp].d(G)[sp].[cEt](A)[sp].[cEt](G)[sp].[moe](T)}$$$$V2.0 | 59% and 53% | – |
| RNA1{[moe](T)[sp].[moe](T)[sp].d(A)[sp].d(T)[sp].d(G)[sp].d(C)[sp].d(C)[sp].d(T)[sp].d(A)[sp].d(C)[sp].d(A)[sp].[moe](G)[sp].[moe](C)[sp].[moe](C)[sp].[moe](T)[sp].[moe](C)[sp].[moe](C)}$$$$V2.0 | 56% and 57% | – |
| RNA1{[moe](T)[sp].[moe](T)[sp].[moe](A)[sp].d(T)[sp].d(G)[sp].d(C)[sp].d(C)[sp].d(T)[sp].d(A)[sp].d(C)[sp].d(A)[sp].d(G)[sp].d(C)[sp].[cEt](C)[sp].[cEt](T)[sp].[cEt](C)}$$$$V2.0 | 37% and 53% | – |
| RNA1{[moe](A)[sp].[moe](G)[sp].[moe](A)[sp].[moe](T)[sp].[moe](G)[sp].d(A)[sp].d(G)[sp].d(G)[sp].d(C)[sp].d(A)[sp].d(T)[sp].d(A)[sp].d(G)[sp].d(C)[sp].[moe](A)[sp].[moe](G)}$$$$V2.0 | 41% and 31% | – |
| RNA1{[moe](A)[sp].[moe](C)[sp].d(T)[sp].d(G)[sp].d(G)[sp].d(A)[sp].d(G)[sp].d(C)[sp].d(C)[sp].d(A)[sp].d(C)[sp].[moe](C)[sp].[moe](A)[sp].[moe](G)[sp].[moe](C)[sp].[moe](A)}$$$$V2.0 | 53% and 42% | – |
| RNA1{[moe](T)[sp].[moe](G)[sp].[moe](A)[sp].d(G)[sp].d(G)[sp].d(C)[sp].d(A)[sp].d(T)[sp].d(A)[sp].d(G)[sp].d(C)[sp].d(A)[sp].[moe](G)[sp].[moe](C)[sp].[moe](A)[sp].[moe](G)}$$$$V2.0 | 60% and 49% | – |
| RNA1{[moe](G)[sp].[moe](C)[sp].[moe](A)[sp].d(T)[sp].d(A)[sp].d(G)[sp].d(C)[sp].d(A)[sp].d(G)[sp].d(C)[sp].d(A)[sp].d(G)[sp].d(G)[sp].[cEt](A)[sp].[cEt](T)[sp].[cEt](G)}$$$$V2.0 | 67% and 76% | – |
| RNA1{[moe](A)[sp].[moe](C)[sp].[moe](G)[sp].[moe](T)[sp].[moe](G)[sp].d(C)[sp].d(A)[sp].d(G)[sp].d(A)[sp].d(G)[sp].d(G)[sp].d(T)[sp].d(G)[sp].d(A)[sp].[moe](A)[sp].[moe](G)}$$$$V2.0 | 6% and 13% | – |
| RNA1{[moe](C)[sp].[moe](A)[sp].[moe](A)[sp].d(T)[sp].d(T)[sp].d(T)[sp].d(A)[sp].d(T)[sp].d(G)[sp].d(C)[sp].d(C)[sp].d(T)[sp].[moe](A)[sp].[moe](C)[sp].[moe](A)[sp].[moe](G)}$$$$V2.0 | 17% and 22% | – |
| RNA1{[moe](A)[sp].[moe](A)[sp].[moe](G)[sp].[moe](C)[sp].d(G)[sp].d(A)[sp].d(A)[sp].d(G)[sp].d(T)[sp].d(G)[sp].d(C)[sp].d(A)[sp].d(C)[sp].[moe](A)[sp].[moe](C)[sp].[moe](G)}$$$$V2.0 | 68% and 62% | – |
| RNA1{[moe](G)[sp].[moe](A)[sp].[moe](T)[sp].d(G)[sp].d(A)[sp].d(G)[sp].d(G)[sp].d(C)[sp].d(A)[sp].d(T)[sp].d(A)[sp].d(G)[sp].[moe](C)[sp].[moe](A)[sp].[moe](G)[sp].[moe](C)[sp].[moe](A)}$$$$V2.0 | 51% | – |
| RNA1{[moe](C)[sp].[moe](A)[sp].[moe](A)[sp].[moe](T)[sp].[moe](T)[sp].d(T)[sp].d(A)[sp].d(T)[sp].d(G)[sp].d(C)[sp].d(C)[sp].d(T)[sp].d(A)[sp].d(C)[sp].[moe](A)[sp].[moe](G)}$$$$V2.0 | 24% and 11% | – |
| RNA1{[moe](A)[sp].[moe](C)[sp].[moe](G)[sp].[moe](G)[sp].d(G)[sp].d(C)[sp].d(A)[sp].d(A)[sp].d(C)[sp].d(A)[sp].d(T)[sp].d(A)[sp].d(C)[sp].[moe](C)[sp].[moe](T)[sp].[moe](T)[sp].[moe](G)}$$$$V2.0 | 38% and 41% | – |
| RNA1{[moe](A)[sp].[moe](T)[sp].[moe](T)[sp].[moe](T)[sp].[moe](A)[sp].[moe](T)[sp].d(G)[sp].d(C)[sp].d(C)[sp].d(T)[sp].d(A)[sp].d(C)[sp].d(A)[sp].d(G)[sp].d(C)[sp].[moe](C)[sp].[moe](T)}$$$$V2.0 | 74% and 57% | target mRNA inhibition (HepG2, 0.0092593 µM): 0%; target mRNA inhibition (HepG2, 0.0277778 µM): 12%; target mRNA inhibition (HepG2, 0.0833333 µM): 24%; target mRNA inhibition (HepG2, 0.25 µM): 46% |
